Experimental data published in patent US7531360B2, “Method of dechlorination treatment of flowing water, in particular upstream of a biological pollution detector” (Societe des Eaux de Marseille, priority 2005, dated 2009).
“Also recorded” adds a separate entry of the source. Each block holds one compound with its values, some of them ahead of it.

Key:
[1] = Maintenance of reducing power of stored ascorbic acid solution over time (iodometry, FIG. 1); conditions: for Reducing activity of degradation by-product: compared with initial ascorbic acid
[2] = test system: trout fingerlings; test: Flowing dechlorination tests in the presence of trout fingerlings; assay type: in vivo; conditions: continuous period of several days
Method: The dechlorinated water flowing out of the mixer directly feeds the aquarium, which is equipped with two probes to measure dissolved oxygen, pH and temperature in real time. The aquarium is maintained under permanent aeration so that stress is not induced in the fish due to a lack of dissolved oxygen.
These flowing dechlorination tests were then carried out in the presence of trout fingerlings, for a continuous period of several days.

[3] = Effect of excess ascorbic acid on pH, dissolved oxygen and residual chlorine in artificially chlorinated distributed water; conditions: stoichiometric or slight excess of reducing agent
Text: In order to ensure effective dechlorination, it is advantageous to control the system using a chlorine analyzer (a metering pump controlled by a chlorine analyzer). However, to avoid this metering pump control, it is possible to work with a slight excess of ascorbic acid. […] Experiments were thus carried out in this area on artificially chlorinated distributed water to verify these effects.
It should be noted that the pH still remains in a range favorable to the survival of trout fingerlings regardless of the initial pH of the distributed water.

[4] = Flowing dechlorination test without trout fingerlings (metering pump, in-line mixer, FIG. 2)
[5] = test system: Fario trout fingerlings; test: Validation of treatment installation coupled with TruitoSEM biological detector
[6] = test system: trout fingerlings; conditions: ascorbic acid 75 mg/l, 6 trout fingerlings, 15 days
Text: As for the TruitoSEM, the aquarium was maintained under constant aeration.

[7] = test system: trout fingerlings; test: Tests of known dechlorination agents for use with biological detector
Text: The inventors carried out a number of experiments to test the various known dechlorination agents mentioned above.

[8] = test system: trout fingerlings; test: Toxicity of chlorine for trout fingerlings: aquarium with increasing concentrations of sodium hypochlorite; assay type: in vivo; conditions: maintained 8 hours
Method: This toxicity of chlorine for trout fingerlings has also been shown by the inventors. Twelve trout fingerlings were maintained in an aquarium containing water chlorinated with increasing concentrations of sodium hypochlorite. Each chlorine concentration was maintained for a period of 8 hours. The aquarium was placed under permanent aeration using an air pump equipped with a porous diffuser. The following table presents the results observed during this experiment.
The following table presents the results observed during this experiment. ([Cl2]=chlorine disinfectant expressed in equivalent Cl2.)

SMILES: O=C1O[C@H]([C@@H](O)CO)C(O)=C1O [ascorbic acid, L-ascorbic acid]
Reduction in reducing power over time ([1]; 10% ascorbic acid solution, darkness, approx. 20° C., after 35 days): −10% | Loss of reducing activity ([1]; ascorbic acid after 60 days, FIG. 1): 5% | Effectiveness of the product (chlorine elimination) after storage ([1]; at least 20% (200 g/l) solution, after 60 days of use): approximately 95% | Physical signs and mobility of trout fingerlings [2]: no abnormal physical signs and normal mobility | Residual chlorine concentration after treatment [3]: < 0.1 mg/L | Ascorbic acid flow rate for effective dechlorination ([4]; 20% solution stored 60 days away from light at ambient temperature (R=3)): 0.036 L/h | Ascorbic acid flow rate for effective dechlorination ([4]; 20% solution, t=0, optimal setting (R=2.5)): 0.030 L/h | Decrease of speed of reaction with chlorine ([4]; ascorbic acid 60 days old): 16% | Dechlorination yield ([4]; initial chlorine 4.5 mg/l equivalent Cl2, 20% ascorbic acid flow rate 0.030 l/h (R=2.5)): ~100% | Mortality of biological indicators ([5]; 8 hours/day for twenty days, real operating conditions): did not generate any mortality | Elimination of chlorine in installation ([5]; in-flow 4.5 mg/l Cl2, water 160 l/h, 20% ascorbic acid 0.036 l/h, solution stored 0 to 60 days): complete neutralization | Behavior of trout fingerlings [6]: did not show any significant change in the behavior

SMILES: O=C1O[C@H]([C@@H](O)CO)C([O-])=C1O.[Na+] [Sodium ascorbate, sodium ascorbate]
Stability of reagent [7]: lack of stability

SMILES: O=C1O[C@H]([C@@H](O)CO)C(=O)C1=O [dehydroascorbic acid]
Reducing activity of degradation by-product [1]: equivalent to that of the initial ascorbic acid

Reducing activity of degradation by-product [1]: lessened reducing activity
SMILES: CCC(=O)C=O [ethylglyoxal]

SMILES: O=S([O-])O.[Na+] [sodium bisulfite, sodium bisulfite (NaHSO3)]
Outcome for trout fingerlings ([7]; various implementation conditions): death of the trout fingerlings

SMILES: OCl [sodium hypochlorite]
Effects observed ([8]; [Cl2] 0.25 mg/l): No effect. | Mortality % observed ([8]; [Cl2] 0.25 mg/l, 12 trout fingerlings): 0% | Effects observed ([8]; [Cl2] 0.70 mg/l): Reduction in mobility; also recorded: Accelerated ventilation | Mortality % observed ([8]; [Cl2] 0.70 mg/l): 10% | Effects observed ([8]; [Cl2] 1.4 mg/l): Highly reduced mobility; also recorded: Loss of appetite; also recorded: Very high ventilation; also recorded: Reduction in the size of the iris | Mortality % observed ([8]; [Cl2] 1.4 mg/l): 60% | Effects observed ([8]; [Cl2] 2.1 mg/l): Swimming on the side then on the back; also recorded: Death | Mortality % observed ([8]; [Cl2] 2.1 mg/l): 100%
